The test system of data set [1] is MC3T3-E1 (mouse calvarial) osteoblast cells. In words: Bone formation assay: rescue of sclerostin inhibition of mineralization (total calcium). Format: cell-based. Also on record: key to Sclerostin Inhibition of Mineralization; improvement over sclerostin alone: − indicates no improvement over sclerostin protein alone; + indicates an IC100 >10 μM; ++ indicates an IC100 <10 μM. Conditions: for Sclerostin Inhibition of Mineralization; improvement over sclerostin alone: IC100 class, calcium concentration. The procedure:
Mineralization (crystalline calcium phosphate formation) represents an in vitro model of bone formation. Using an assay in which the amount of mineralization is quantified by measuring total calcium after solubilization of deposited crystalline calcium phosphate, sclerostin was previously shown to inhibit mineralization in MC3T3-E1 (mouse calvarial) osteoblast cells. Li et al., J Bone Miner Res 24:578-588 (2008). Following the protocol described in Li et al., Compounds were assayed for their ability to rescue the inhibition of mineralization by sclerostin in MC3T3 osteoblast cells. […] Addition of a compound of Examples 1-6 neutralized sclerostin-mediated inhibition of mineralization, as reflected by the increase in calcium concentration.

The nature of data set [2]: Metabolic stability in pooled human liver microsomes. Format: in vitro ADME. The following applies: 0.1 μM compound, human liver microsomes 0.1 mg/mL, NADPH, 37° C., 60 minutes. The method, then: Compounds of the present invention (0.1 μM) were incubated with microsomes at 37° C. for a total of 60 minutes. The reaction contained pooled human liver microsomal protein (0.1 mg/mL) in potassium phosphate buffer with NADPH. At the indicated time points (0, 5, 15, 30 and 60 minutes). Samples were analyzed by LC/MS/MS and remaining parent drug was calculated using Microsoft Excel (2007). Obach R S, Drug Metab Dispos. 27(11):1350-1359 (1999).

Another data set has as its target T1, sclerostin (Homo sapiens, UniProt Q9BQB4).
T1 construct: host or cells: human embryonic cells (assay cells)
T1 sequence (Q9BQB4 24-213): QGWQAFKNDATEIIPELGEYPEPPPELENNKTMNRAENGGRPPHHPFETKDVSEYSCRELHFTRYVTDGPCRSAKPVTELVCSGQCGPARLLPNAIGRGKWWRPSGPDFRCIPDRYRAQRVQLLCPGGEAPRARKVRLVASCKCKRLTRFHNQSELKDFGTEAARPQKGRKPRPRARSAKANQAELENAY
Briefly: Modulation of sclerostin/Wnt activity: restoring Wnt3a signaling in the presence of sclerostin. Format: cell-based. The following applies: for Sclerostin Inhibition Assay; improvement over sclerostin alone: IC100 class, Wnt3a signaling in human embryonic cells in the presence of sclerostin. Also noted: key to Sclerostin Inhibition Assay; improvement over sclerostin alone: − indicates no improvement over sclerostin protein alone; + indicates an IC100 >10 μM; ++ indicates an IC100 <10 μM. The method, then: Compounds synthesized in accordance with the methods of Examples 1-6 were assayed for their ability to restore Wnt signaling in the presence of sclerostin consistent with a known sclerostin antagonist, sclerostin Mab. See, Ellies et al., J Bone Miner Res 21:1738-1749 (2006). […] The addition of a known sclerostin antagonist inhibited sclerostin inhibition of Wnt3a signaling, thus restoring Wnt3a signaling in the cell (IC100 at 10 μM) (data not shown).

With `Cl.FC(F)(F)c1nccc2c3ccncc3n(CCN3CCOCC3)c12` [Example 1, 4-(2-(1-(Trifluoromethyl)-9H-pyrrolo[2,3-c:5,4-c′]dipyridin-9-yl)ethyl)morpholine hydrochloride salt], the “Sclerostin Inhibition of Mineralization; improvement over sclerostin alone” value in data set [1] is given as “+ (+ indicates an IC100 >10 μM)”. The “Metabolic Stability” value in data set [2] is “++ (++ indicates a stability >1x)”. The “Sclerostin Inhibition Assay; improvement over sclerostin alone” value on sclerostin is “+ (+ indicates an IC100 >10 μM)”.

Turning to `Cl.[O-][n+]1ccc2c3ccnc(C(F)(F)F)c3n(CCN3CCOCC3)c2c1` [Example 2, 9-(2-Morpholinoethyl)-8-(trifluoromethyl)-9H-pyrrolo[2,3-c:5,4-c′]dipyridine 2-oxide hydrochloride salt], the “Sclerostin Inhibition of Mineralization; improvement over sclerostin alone” value in data set [1] was “−”. The “Metabolic Stability” value in data set [2] is reported as “++ (++ indicates a stability >1x)”. Moreover, the “Sclerostin Inhibition Assay; improvement over sclerostin alone” value at sclerostin was “−”.

Turning to `COc1ccc2c3ccnc(C(F)(F)F)c3n(CCN3CCOCC3)c2n1.Cl` [Example 3, 4-(2-(2-Methoxy-8-(trifluoromethyl)-9H-pyrrolo[2,3-b:5,4-c′]dipyridin-9-yl)ethyl)morpholine hydrochloride salt], the “Sclerostin Inhibition of Mineralization; improvement over sclerostin alone” value in data set [1] is “++ (++ indicates an IC100 <10 μM)”. In addition, the “Metabolic Stability” value in data set [2] is “++ (++ indicates a stability >1x)”. The “Sclerostin Inhibition Assay; improvement over sclerostin alone” value at sclerostin is recorded as “++ (++ indicates an IC100 <10 μM)”.

In the case of `COc1cc2c(cn1)c1ccnc(C(F)(F)F)c1n2CCN1CCOCC1.Cl` [Example 4, 4-(2-(3-Methoxy-6-(trifluoromethyl)-5H-pyrrolo[2,3-c:4,5-c′]dipyridin-5-yl)ethyl)morpholine hydrochloride salt], the “Sclerostin Inhibition of Mineralization; improvement over sclerostin alone” value in data set [1] is “++ (++ indicates an IC100 <10 μM)”. In addition, in data set [2], the “Metabolic Stability” value is given as “++ (++ indicates a stability >1x)”. For the same molecule, the “Sclerostin Inhibition Assay; improvement over sclerostin alone” value at sclerostin is on record as “++ (++ indicates an IC100 <10 μM)”.

For the molecule `COc1ncc2c3ccnc(C(F)(F)F)c3n(CCN3CCOCC3)c2n1` [Example 5, 4-(2-(2-Methoxy-8-(trifluoromethyl)-9H-pyrido[4′,3′:4,5]pyrrolo[2,3-d]pyrimidin-9-yl)ethyl)morpholine], the “Sclerostin Inhibition of Mineralization; improvement over sclerostin alone” value in data set [1] is given as “++ (++ indicates an IC100 <10 μM)”. In data set [2], the “Metabolic Stability” value was “++ (++ indicates a stability >1x)”. Besides, the “Sclerostin Inhibition Assay; improvement over sclerostin alone” value at sclerostin is given as “++ (++ indicates an IC100 <10 μM)”.

In the case of `COc1nc2c(cc1F)c1ccnc(C(F)(F)F)c1n2CCN1CCOCC1.Cl` [Example 6, 4-(2-(3-Fluoro-2-methoxy-8-(trifluoromethyl)-9H-pyrrolo[2,3-b:5,4-c′]dipyridin-9-yl)ethyl)morpholine hydrochloride salt], in data set [1], the “Sclerostin Inhibition of Mineralization; improvement over sclerostin alone” value is reported as “++ (++ indicates an IC100 <10 μM)”. In addition, in data set [2], the “Metabolic Stability” value is listed as “++ (++ indicates a stability >1x)”. Also, the “Sclerostin Inhibition Assay; improvement over sclerostin alone” value at sclerostin is recorded as “++ (++ indicates an IC100 <10 μM)”.

With “Sclerostin protein: sclerostin protein, antagonizes Wnt3a signaling and inhibits mineralization; the assays' inhibitory stimulus and baseline”, in data set [1], the “effect on mineralization, as measured by calcium concentration (in words)” value is reported as “significant decrease in mineralization” and the “Sclerostin Inhibition of Mineralization; improvement over sclerostin alone” value is “−”. In addition, the “Sclerostin Inhibition Assay; improvement over sclerostin alone” value with sclerostin is on record as “−”. Moreover, the “effect on Wnt3a signaling (in words)” value in the data set with sclerostin (human embryonic cells) is listed as “antagonized Wnt3a signaling”.

(Values after patent publication US12195461B2, “Pyrrolo-dipyridine compounds” (OssiFi Therapeutics LLC, priority 2018, dated 2025).)
